Source: ChEMBL document CHEMBL1158189, “New taxane diterpenoids from the roots of Taxus mairei” (J Nat Prod, 1996)
Converted amounts (≈) assume the structure as drawn.

Columns and labels:
Type in all cases: functional, cell-based
P388 = assay: Cytotoxicity against mouse P388 cells after 72 hrs; details: P388, 72 h
[1] = Cytotoxicity against human KB16 cells after 72 hrs; details: KB16, 72 h
A549 = assay: Cytotoxicity against human A549 cells after 72 hrs; details: A549, 72 h
HT-29 = assay: Cytotoxicity against human HT29 cells after 72 hrs; details: HT-29, 72 h

Structure (SMILES): CC(=O)O[C@H]1C[C@H]2[C@@H](O)[C@@H]3[C@](O)(COC(=O)c4ccccc4)[C@@H](OC(C)=O)C[C@H](OC(C)=O)[C@@]3(C)[C@@H](OC(C)=O)[C@H](OC(C)=O)C(=C1C)C2(C)C [TAXUMAIROL A]
- IC50 (P388): 0.05 µg/mL (≈ 0.0698 µM)
- IC50 [1]: 0.4 µg/mL (≈ 0.558 µM)
- IC50 (A549): 1.7 µg/mL (≈ 2.37 µM)
- IC50 (HT-29): 1 µg/mL (≈ 1.4 µM)

Structure (SMILES): CC(=O)O[C@H]1C[C@@]2(O)[C@@H](OC(C)=O)[C@@H]3[C@@]4(CO4)[C@@H](OC(C)=O)C[C@H](O)[C@@]3(C)[C@@H](O)[C@H](OC(C)=O)C(=C1C)C2(C)C [TAXUMAIROL B]
- IC50 (P388): > 50 µg/mL
- IC50 [1]: 1.4 µg/mL (≈ 2.46 µM)
- IC50 (A549): > 50 µg/mL
- IC50 (HT-29): > 50 µg/mL

Structure (SMILES): CC(=O)O[C@H]1C[C@H]2[C@@H](OC(=O)c3ccccc3)[C@@H]3[C@](O)(CO)[C@@H](OC(C)=O)C[C@H](OC(C)=O)[C@@]3(C)[C@@H](OC(C)=O)[C@H](OC(C)=O)C(=C1C)C2(C)C
- IC50 (P388): 2.4 µg/mL (≈ 3.35 µM)
- IC50 [1]: 1 µg/mL (≈ 1.4 µM)
- IC50 (A549): 4.8 µg/mL (≈ 6.7 µM)
- IC50 (HT-29): 1.4 µg/mL (≈ 1.95 µM)
